Results from patent publication US20040034026A1, “Combination comprising an agent decreasing vegf activity and an agent decreasing egf activity” (priority 2000, published 2004).

Assays:
[1] = system: DU145 prostate carcinoma human cell lines; assay: DU145 prostate carcinoma human cell lines grown i.d. in nude mice; format: in vivo
Procedure: DU145 Prostate Carcinoma Human Cell Lines Grown i.d. in Nude Mice
DU145 prostate carcinoma human cell lines are grown i.d. in nude mice. Tumor cell (10^6) are injected intradermally (i.d.) on the left and right flank of nude mice. Treatment with compounds is started after 25-32 days when tumors reach a size of 80-100 mm^2. At this time animals are sorted into groups with equivalent mean and range of tumor sizes. Treatment is then randomized to the different groups. Tumor size is measured with calipers on a weekly basis.
After 4 weeks of treatment, 50 mg/kg po/day of PTK787 (active ingredient 1) reduces the tumor growth by 74%. 50 mg/kg po/day of the selective EGF receptor tyrosine kinase inhibitor as described in Example 1 of WO 96/33980 (active ingredient 2) reduces tumor growth by 91%. The maximum effects of either agent given alone in this model is stable disease. Simultaneous treatment with both active ingredients (50 mg/kg po/day of each active ingredient) results in tumor regression (25% reduction compared to intial tumor weight).
After 2 weeks of treatment, 50 mg/kg po/day of PTK787 (active ingredient 1) reduces the tumor growth by 41%. 50 mg/kg po/day of the selective EGF receptor tyrosine kinase inhibitor PKI166 reduces tumor growth by 44%. Simultaneous treatment with both active ingredients (50 mg/kg po/day of each active ingredient) reduces the tumor growth by 74%.

[2] = system: NeuT transfected HC11 mouse mammary epithelial cells (breast tumors); assay: Mouse breast carcinoma induced by transfection of breast epithelial cells with NeuT (transgenic organ tumor model); format: in vivo; conditions: female BALB/c mice, 100 mg/kg of each active ingredient once per day; fraction of tumors
Procedure: Treatment of Mouse Breast Carcinoma Induced by Transfection of Breast Epithelial Cells with NeuT (Transgenic Organ Tumor Model)
The dual treatment with PTK787 in the form of its succinate salt (active ingredient 1, Example 62 of WO 98/35958) and an EGF receptor tyrosine inhibitor of formula IV wherein q′ is 1, n′ is 0, R^E1 is hydrogen, R^E2 is 3-acetylamino phenyl and R^E6 is methyl (active ingredient 2, Example 22e of WO 97/02266) is performed on a genetically engineered tumor model, which uses “transgenic” organs in normal mice. NeuT (the point mutated rat homolog of erbB-2) transfected HC11 epithelial mouse mammary epithelial cells are transplanted into the gland-free mammary fat pad (cleared fat-pad) of the fourth mammary gland of female BALB/c mice according to an established method (DeOme, Faulkin, et al., Cancer Res. 19: 515-520, 1959). Within 4 to 6 weeks, the transplanted oncogene-transfected mammary epithelial cells develop breast tumors. Tumors are focal and heterogeneous in morphology, and oncogene and other molecular marker expression. Tumors grow rapidly and most of the animals develop breast tumors bilaterally after transplantation. The animals are allocated randomly to three different treatment groups. A first group is treated with 100 mg/kg of active ingredient 1 dosed once per day alone; a second group is treated with 100 mg/kg of active ingredient 2 dosed once per day alone; and a third group is treated with the combination of both active ingredients dosed with 100 mg/kg once per day. […]

[3] = 50 mg/kg po/day, after 4 weeks of treatment
[4] = 50 mg/kg po/day of each active ingredient, after 2 weeks of treatment

Row | SMILES | reduction of tumor growth [1, 3] [%] | reduction of tumor growth [1, 4] [%] | tumors with regression [2] [%] | tumors with stable disease [2] [%] | tumors without response to the treatment [2] [%]
1 | COc1cc2ncnc(Nc3ccc(F)c(Cl)c3)c2cc1OCCCN1CCOCC1 [Example 1 of WO 96/33980, reference compound] | 91 |  |  |  | 
2 | C[C@@H](Nc1ncnc2[nH]c(-c3ccc(O)cc3)cc12)c1ccccc1 [PKI166] |  | 44 |  |  | 
3 | Clc1ccc(Nc2nnc(Cc3ccncc3)c3ccccc23)cc1 [PTK787] | 74 | 41 | 7 | 21 | 78
